Measured values reported in PubChem BioAssay AID2060886 (Molecular Pharmacology Branch, DTP, NCI, 2025).
Several values for one entry are separate records, joined by “and”; a condition that tells them apart may be missing. Equal entries are not always repeated.

System: 653999-131-R-J2-PDC complex spheroids, growth inhibition
Assay: Anticancer human tumor 653999-131-R-J2-PDC patient-derived lung adenocarcinoma cell line growth inhibition [RAS]
Conditions: for viability, T/C: stronger effect = lower value; active means viability on the fitted dose curve at most 10% of control; inactive means the rest
Text: RAS pathway inhibitors in Combinations in Complex Spheroids
A high-throughput screen of multi-cell type tumor spheroids was designed to identify active combinations of RAS pathway inhibitors and targeted small molecules. Complex spheroids include a stromal component modeled by human endothelial cells (HUVEC) and fibroblasts modeled by human mesenchymal stem cells (MSCs). The concentration ranges selected for each drug and investigational agent were based upon clinically achievable concentrations if the clinical Cmax of the agent was known.
Compounds. The drugs and investigational agents: abemaciclib (NSC768073), cobimetinib (NSC768068), divarasib (GDC6063, NSC841802), docetaxel (NSC628503), GDC-1971 (RLY-1971, NSC841576), gemcitabine (NSC613327), inavolisib (NSC800729), ipatasertib (NSC767898), KB-0742 (NSC834161), MRTX-1133 (NSC836407), osimertinib (NSC779217), RMC-4630 (NSC839698), RMC-6236 (NSC851965), RMC-6291 (NSC852671), Ro-3306 (NSC812927), sapanisertib (NSC764658), SN-38 (NSC673596), staurosporine (NSC755774), SY5609 (NSC837396), and tovorafenib (DAY101, NSC766906), were obtained from the National Cancer Institute (NCI) Developmental Therapeutics Program Chemical Repository. The FDA-approved anticancer drug set is available from the NCI Developmental Therapeutics Program. […] The stock solutions were prepared in dimethyl sulfoxide (DMSO, Sigma-Aldrich, St. Louis, MO, cat. D2650) at 800-fold the tested concentration and stored at -70 degrees C prior to their use. All drugs and investigational agents were tested over a range starting from a high concentration at or near the clinical Cmax and decreasing in half-log increments. If the clinical Cmax for an agent had not been determined, the highest concentration tested was 10 microM.
Cell Culture. All cells were maintained in an incubator at 37 degrees C and 5% CO2 with 95% humidity. The PDC lines were cultured according to standard operating procedures established by the NCI PDMR. All PDCs were thawed and cultured in Matrigel-coated flasks prepared with a working solution of 1X Ham's F-12 nutrient mix, without supplementation (Invitrogen, Waltham, MA, cat. 11765054), 100 U/mL penicillin-streptomycin (Invitrogen, cat. 15140122), and 2.5% Matrigel (Corning Inc., Corning, NY, cat. 354248) for the first three passages. The 362531-283-R-J2-PDC and 782815-120-R-J1-PDC lines were cultured in 6C/Colon 1B media, which includes advanced DMEM/F-12 (Thermo Fisher Scientific, cat. 12634028), 10 mM HEPES (Thermo Fisher Scientific, cat. 15630080), 1X GlutaMAX supplement (Thermo Fisher Scientific, cat. 35050061), 0.1 mg/mL primocin (InvivoGen, San Diego, CA, cat. ant-pm-2), 10% defined fetal bovine serum, heat inactivated (HyClone Laboratories Inc., Logan, UT, cat. SH30070.03HI), 50% L-WRN conditioned media (ATCC, cat. CRL-3276), 1.25 mM N-Acetyl-L-cysteine (Sigma-Aldrich, cat. A9165), 10 mM nicotinamide (Sigma-Aldrich, cat. N0636), 1X B-27 supplement (Thermo Fisher Scientific, cat. 17504044), 1X N-2 supplement (Thermo Fisher Scientific, cat. 17502048), 50 ng/mL human EGF (Thermo Fisher Scientific, cat. PHG0311), and 10 microM Y-27632 dihydrochloride (Tocris Bioscience, cat. 1254). The K12877-001-R-J1-PDC line was cultured in 6I media, which includes all 6C/Colon 1B media plus 10 ng/mL human FGF-10 (PeproTech, cat. 100-26), 1 ng/mL human FGF-2 (PeproTech, cat. 100-18B), 1 µM prostaglandin E2 (Tocris Bioscience, cat. 2296), […] hydrocortisone (Sigma-Aldrich, cat. H4001), and […] bovine insulin (Sigma-Aldrich, cat. I6634). The K86415-001-R-J1-PDC line was cultured in 6D media, which includes all 6C/Colon 1B media components minus the L-WRN conditioned media. The 485176-168-R4-J1-PDC was cultured in PANC media, which includes all 6C/Colon 1B media plus 100 ng/mL human FGF-10 (PeproTech, cat. 100-26), 500 nM SB-431542 (Selleckchem, cat. S1067), and 10 nM gastrin (Tocris Bioscience, cat. 3006). […]
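Further: spheroids exposed to the agents for seven days before the readout.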

CCc1c2c(nc3ccc(O)cc13)-c1cc3c(c(=O)n1C2)COC(=O)[C@]3(O)CC + C#Cc1c(F)ccc2cc(O)cc(-c3ncc4c(N5CC6CCC(C5)N6)nc(OCC56CCCN5CC(F)C6)nc4c3F)c12
7.98 nM: IC50 (curve of first compound, second compound 0.1 µM)
active: viability, T/C (second compound 3.16 µM, first compound 0.0949 µM) 9.96% | viability, T/C (second compound 3.16 µM, first compound 0.3 µM) 7.39% | viability, T/C (second compound 10 µM, first compound 0.03 µM) 9.45% | viability, T/C (second compound 10 µM, first compound 0.0949 µM) 7.29% | viability, T/C (second compound 10 µM, first compound 0.3 µM) 4.35%
7.6 nM: IC50 (curve of first compound, second compound 0.0316 µM)
< 0.949 nM: IC50 (curve of first compound, second compound 1 µM) | IC50 (curve of first compound, second compound 3.16 µM) | IC50 (curve of first compound, second compound 10 µM)
inactive: viability, T/C (second compound 0.0316 µM, first compound 0.000949 µM) 85.8% | viability, T/C (second compound 0.0316 µM, first compound 0.003 µM) 68.4% | viability, T/C (second compound 0.0316 µM, first compound 0.00949 µM) 43.6% | viability, T/C (second compound 0.0316 µM, first compound 0.03 µM) 30.7% | viability, T/C (second compound 0.0316 µM, first compound 0.0949 µM) 24.1% | viability, T/C (second compound 0.0316 µM, first compound 0.3 µM) 14.2% | viability, T/C (second compound 0.1 µM, first compound 0.000949 µM) 83.9% | viability, T/C (second compound 0.1 µM, first compound 0.003 µM) 58.7% | viability, T/C (second compound 0.1 µM, first compound 0.00949 µM) 48.4% | viability, T/C (second compound 0.1 µM, first compound 0.03 µM) 35.2% | viability, T/C (second compound 0.1 µM, first compound 0.0949 µM) 22.9% | viability, T/C (second compound 0.1 µM, first compound 0.3 µM) 12.2% | viability, T/C (second compound 0.316 µM, first compound 0.000949 µM) 57.5% | viability, T/C (second compound 0.316 µM, first compound 0.003 µM) 41.4% | viability, T/C (second compound 0.316 µM, first compound 0.00949 µM) 32.2% | viability, T/C (second compound 0.316 µM, first compound 0.03 µM) 23.5% | viability, T/C (second compound 0.316 µM, first compound 0.0949 µM) 17.5% | viability, T/C (second compound 0.316 µM, first compound 0.3 µM) 13.3% | viability, T/C (second compound 1 µM, first compound 0.000949 µM) 40.3% | viability, T/C (second compound 1 µM, first compound 0.003 µM) 26.4% | viability, T/C (second compound 1 µM, first compound 0.00949 µM) 21.4% | viability, T/C (second compound 1 µM, first compound 0.03 µM) 20.2% | viability, T/C (second compound 1 µM, first compound 0.0949 µM) 15.1% | viability, T/C (second compound 1 µM, first compound 0.3 µM) 20.8% | viability, T/C (second compound 3.16 µM, first compound 0.000949 µM) 39.2% | viability, T/C (second compound 3.16 µM, first compound 0.003 µM) 21.2% | viability, T/C (second compound 3.16 µM, first compound 0.00949 µM) 16.6% | viability, T/C (second compound 3.16 µM, first compound 0.03 µM) 11.6% | viability, T/C (second compound 10 µM, first compound 0.000949 µM) 26.8% | viability, T/C (second compound 10 µM, first compound 0.003 µM) 17.8% | viability, T/C (second compound 10 µM, first compound 0.00949 µM) 12.5%
1.67 nM: IC50 (curve of first compound, second compound 0.316 µM)

CCn1c(-c2cccnc2C(C)OC)c2c3cc(ccc31)N1CCOC(CC(NC(=O)C(C(C)C)N(C)C(=O)C3(F)CCN(C(=O)C#CC(C)(C)N(C)C)CC3)C(=O)N3CCCC(N3)C(=O)OCC(C)(C)C2)C1 (configuration not stated)
inactive: viability, T/C (compound 0.003 µM) 95.1% [middle of 8 runs] | viability, T/C (compound 0.00949 µM) 99.5% [middle of 8 runs] | viability, T/C (compound 0.03 µM) 104% [middle of 8 runs] | viability, T/C (compound 0.0949 µM) 99.9% [middle of 8 runs] | viability, T/C (compound 0.3 µM) 107% [middle of 8 runs]
> 300 nM: IC50 (compound alone, run of 08/20/2024)

CCn1c(-c2cc(N3CCN(C)CC3)cnc2C(C)OC)c2c3cc(ccc31)-c1csc(n1)CC(NC(=O)C1CC1C)C(=O)N1CCCC(N1)C(=O)OCC(C)(C)C2 (configuration not stated)
inactive: viability, T/C (compound 0.000949 µM) 80.7% [middle of 7 runs] | viability, T/C (compound 0.003 µM) 65.2% [middle of 7 runs] | viability, T/C (compound 0.00949 µM) 49.8% [middle of 7 runs] | viability, T/C (compound 0.03 µM) 37.4% [middle of 7 runs] | viability, T/C (compound 0.0949 µM) 29.4% [middle of 7 runs] | viability, T/C (compound 0.3 µM) 28.6% [middle of 7 runs]
8.13 nM [middle of 7 runs]: IC50 (compound alone, run of 08/26/2024)

C[C@@H](NC(=O)c1ncnc(N)c1Cl)c1ncc(C(=O)Nc2cc(C(F)(F)F)c(Cl)cn2)s1
inactive: viability, T/C (compound 0.0316 µM) 110% and 94.1% and 103% | viability, T/C (compound 0.1 µM) 99.2% and 120% and 108% | viability, T/C (compound 0.316 µM) 93.9% and 101% and 114% | viability, T/C (compound 1 µM) 91.1% and 102% and 105% | viability, T/C (compound 3.16 µM) 98.3% and 99.8% and 102% | viability, T/C (compound 10 µM) 68.6% and 79% and 75.5%
> 10000 nM: IC50 (curve of compound)
